“Also recorded” adds a separate entry of the source.
Legend:
[1] = target: U4/U6 92-nt RNA construct; experiment: MST binding to U4/U6 92-nt RNA; design: species or system yeast; settings: 50 nM Cy5-labeled 92-nt RNA
Experimental: (§1) MST experiments were conducted using a Monolith NT.115 system (NanoTemper, Germany) as described previously.[36] 5′-Cy5-labeled U4/U6 RNA was folded as above-mentioned and diluted to 100 nM (2x) in a working buffer. For RNA-small molecule interactions, compounds were prepared in the running buffer (with 10% DMSO) and mixed with RNA in a 1:1 (v/v) ratio, resulting in 50 nM RNA and 5% DMSO in the final solution. Then, MST scanning was performed in triplicate using a red LED channel to obtain the binding signals. Binding affinity (KD) was determined by fitting the concentration-dependent curve in the T-jump region according to the 1:1 Langmuir binding model (MO.Affinity Analysis v2.3).

[2] = tested on: U4/U6 snRNA construct 79 nt (No. 2, K-turn disrupted) (RNA, junction) GGCCUUAUGCACGGGAAAUACGCAUAUCGUAAGAUUGUGUUUUUGCUGGUGUAAAUCAGCAGUUCCCCUGCAUAAGGCU; experiment: SPR; settings: 1x PBS; pH 7.4, 0.005% Tween 20, 5% DMSO; no binding up to 50 μM
[3] = tested on: U4U6 RNA for SHAPE-MaP (T7 transcript of Template) (RNA, junction) GGGCCUUCGGGCCAAGGCCUUAUGCACGGGAAAUACGCAUAUCAGUGAGGAUUCGUCCGAGAUUGUGUUUUUGCUGGUGUAAAUCAGCAGUUCCCCUGCAUAAGGCUUCGAUCCGGUUCGCCGGAUCCAAAUCGGGCUUCGGUCCGGUUC; experiment: SHAPE-MaP / deltaSHAPE (2A3); settings: KCl (3.3x folding buffer: 1023 mM); potassium phosphate pH 7.0, EDTA; 100 μM compound
[4] = target: U4/U6 snRNA construct (92 nt); experiment: SPR binding to U4/U6 snRNA construct (92 nt); design: species or system yeast; settings: 92 nt RNA, steady-state fit; >100 = signal appeared at 100 μM but failed to fit
Experimental: (§2) SPR experiments were carried out using an SPR optical biosensor (BIAcore 3000, Cytiva, USA) based on reported methods with minor modifications.[35] To avoid RNA degradation during long-time injections, the whole microfluidic system was washed by priming 50% RNase Zap buffer and RNase-free water one day before the experiments. Then, by using running buffer (1xPBS, pH7.4, 0.005% Tween 20, 5% DMSO) at a flow rate of 5 μL/min, the binding assays were performed. In brief, a CM5 chip surface coated with carboxylated dextran was activated by standard EDC/NHS amine-coupling protocol and then conjugated with streptavidin (200 ng/mL in 10 mM sodium acetate buffer, pH 4.5) for 30 min, resulting in 4000~6000 response units (RUs) signal. After streptavidin conjugation, the surface was deactivated (1 M ethanolamine, pH 8.5) for 10 min and regenerated (10 mM NaOH) for 2 min to remove unbound SA. Then, the folded U4/U6 RNA with biotin-label at 5′ end was prepared (according to the above-mentioned method) at 5 μM and injected in flow-cell (Fc) 2 for 30 min while Fc1 was kept blank as a reference. Then, the system continued flowing the running buffer until the baseline was stable before future steps.
To detect binding between small molecules and U4/U6 snRNA, a 50 μL compound solution was applied to both Fc1 and Fc2 channels simultaneously at a higher flow rate (25 μL/min). The binding curve contains 120 s association and 200 s dissociation. A pulse of 10 mM NaOH injection was used for regeneration if needed. To measure the dissociation constant (KD), titrations of compound solutions with a serial dilution were applied. The KD value was then calculated by fitting the binding curves based on a steady-state model in BIAevaluation 4.0 software and plotted in GraphPad Prism 9.

[5] = tested on: U4/U6 snRNA construct 92 nt (WT, No. 1), Cy5 (RNA, junction) GGCCUUAUGCACGGGAAAUACGCAUAUCAGUGAGGAUUCGUCCGAGAUUGUGUUUUUGCUGGUGUAAAUCAGCAGUUCCCCUGCAUAAGGCU; experiment: MST (T-jump, 1:1 fit); settings: running buffer, 5% DMSO, 50 nM RNA
[6] = tested on: Snu13-U4/U6 RNA interaction; experiment: KD shift assay by MST (protein-RNA inhibition); type: binding, yeast; settings: 10 μM compound vs no compound
Experimental: as §1
For the protein-RNA inhibition assay, Snu13 protein was prepared in the running buffer (10 mM HEPES, pH 7.4, 150 mM NaCl, and 0.005% Tween 20) at different concentrations ranging from 0 μM to 5 μM. Meanwhile, a compound at a designated concentration was added to the annealed RNA solution. Then, the test solutions were prepared by 1:1 (v/v) mixing the protein and RNA-small molecule samples, followed by the standard MST procedure mentioned above.

[7] = tested on: U4/U6 snRNA construct 92 nt (WT, No. 1), Cy5 (RNA, junction) GGCCUUAUGCACGGGAAAUACGCAUAUCAGUGAGGAUUCGUCCGAGAUUGUGUUUUUGCUGGUGUAAAUCAGCAGUUCCCCUGCAUAAGGCU; experiment: EMSA; settings: 150 mM NaCl; 20 mM Tris-Cl pH 7.6, 0.1% Triton X-100, 2 mM DTT; 1 μM Snu13 protein displaced
[8] = tested on: Snu13-U4/U6 RNA interaction; experiment: EMSA of Snu13-U4/U6 RNA complex; type: biochemical, yeast; settings: 1 μM Snu13, compound 0.5 to 20 μM, gel band quantification; read-out: IC50 (RNA-protein complex formation)
Experimental: The 5′-end Cy5 labeled U4U6 RNA in 11.25 mM KPO4 pH 7.0, 310 mM KCl, and 5 mM EDTA was folded based on the above-mentioned method. The folded RNA was incubated with 1 μM Snu13 protein in the buffer containing 20 mM Tris-Cl pH 7.6, 150 mM NaCl, and 0.1% of Triton X-100 and 2 mM DTT for 30 min at room temperature. Then the compound (0.5 μM to 20 μM) was added to the samples and incubated at room temperature for 15 min. The samples were loaded into the 8% native PAGE gel and visualized by AMERSHAM TYPHOON Biomolecular Imager. Image J software was used for image processing. RNA-protein complex formation in the presence of increasing concentration of compound 22 was calculated by quantifying the higher molecular weight band intensity and normalized to the band intensity of RNA-protein complex in the absence of compound. Values reported are the average of three replicates. The half-maximal inhibitory concentration (IC50) was determined by fitting the data in inhibitor dose–response curves in GraphPad Prism 9. Quantitative data were presented as the mean ± SEM.

[9] = tested on: U4/U6 79-nt snRNA construct; experiment: SPR binding test with 79 nt RNA lacking the K-turn; design: species or system yeast; settings: 79 nt RNA that disrupts the 5′ SL; until 50 μM
Experimental: as §2, with “Then, the folded U4/U6 RNA with biotin-label at 5′ end was prepared (according to the above-mentioned method) at 5 μM and injected in flow-cell (Fc) 2 for 30 min while Fc1 was kept blank as a reference. Then, the system continued flowing the running buffer until the baseline was stable before future steps.” left out
To detect binding between small molecules and U4/U6 snRNA, a 50 μL compound solution was applied to both Fc1 and Fc2 channels simultaneously at a higher flow rate (25 μL/min). […] The KD value was then calculated by fitting the binding curves based on a steady-state model in BIAevaluation 4.0 software and plotted in GraphPad Prism 9.

[10] = tested on: U4/U6 snRNA construct 92 nt (WT, No. 1) (RNA, junction) GGCCUUAUGCACGGGAAAUACGCAUAUCAGUGAGGAUUCGUCCGAGAUUGUGUUUUUGCUGGUGUAAAUCAGCAGUUCCCCUGCAUAAGGCU; experiment: SPR steady state; settings: 1x PBS; pH 7.4, 0.005% Tween 20, 5% DMSO
[11] = tested on: NHP2L1 (Snu13) and U4 5′ SL; design: method as in PMID 28985478; settings: cited from earlier work

| Compound | Kd [1] [µM] | binding [2] | binding [3] | Kd [4] [µM] | KD [5] [µM] | fold weaker Snu13 affinity [6] [fold] | IC50 [7] [µM] | IC50 [8] [µM] | SPR binding to 79 nt RNA [9] | KD [10] [µM] | effect on NHP2L1-U4 5′ SL interaction [11] |
| --- | --- | --- | --- | --- | --- | --- | --- | --- | --- | --- | --- |
| CN(C)CCNc1nnc(-c2nc(-c3ccc(F)cc3)no2)c2ccccc12 [Compound 22] | 9.1 ± 0.6 | no | yes | 3.9 ± 2.2 | 9.1 ± 0.6 | 13 | 3.2 ± 0.4 | 3.2 ± 0.4 | did not show any binding | 3.9 ± 2.2 | – |
| CC[C@@]1(O)C(=O)OCc2c1cc1n(c2=O)Cc2cc3c(CN(C)C)c(O)ccc3nc2-1 [topotecan] | – | – | – | – | – | – | – | – | – | – | inhibit the interaction; also recorded: disrupts the binding |

From paper doi:10.1101/2025.10.10.681657 (bioRxiv, 2025)
